The test system of data set [1] is L1210. Kind of data set: Antiproliferative against mouse L1210 cells after 48 hrs. In kind it is functional, cell-based. The following applies: L1210, 48 h.
The nature of data set [2]: Antiproliferative against human Molt4/C8 cells after 72 hrs. In kind it is functional, cell-based. The following applies: MOLT-4, 72 h.
For data set [3], the system named is CCRF-CEM. Briefly: Antiproliferative against human CEM cells after 72 hrs. In kind it is cell-based.
For data set [4], the target named is T1, DNA topoisomerase 1 (Homo sapiens) (UniProt P11387).
T1 sequence (whole entry): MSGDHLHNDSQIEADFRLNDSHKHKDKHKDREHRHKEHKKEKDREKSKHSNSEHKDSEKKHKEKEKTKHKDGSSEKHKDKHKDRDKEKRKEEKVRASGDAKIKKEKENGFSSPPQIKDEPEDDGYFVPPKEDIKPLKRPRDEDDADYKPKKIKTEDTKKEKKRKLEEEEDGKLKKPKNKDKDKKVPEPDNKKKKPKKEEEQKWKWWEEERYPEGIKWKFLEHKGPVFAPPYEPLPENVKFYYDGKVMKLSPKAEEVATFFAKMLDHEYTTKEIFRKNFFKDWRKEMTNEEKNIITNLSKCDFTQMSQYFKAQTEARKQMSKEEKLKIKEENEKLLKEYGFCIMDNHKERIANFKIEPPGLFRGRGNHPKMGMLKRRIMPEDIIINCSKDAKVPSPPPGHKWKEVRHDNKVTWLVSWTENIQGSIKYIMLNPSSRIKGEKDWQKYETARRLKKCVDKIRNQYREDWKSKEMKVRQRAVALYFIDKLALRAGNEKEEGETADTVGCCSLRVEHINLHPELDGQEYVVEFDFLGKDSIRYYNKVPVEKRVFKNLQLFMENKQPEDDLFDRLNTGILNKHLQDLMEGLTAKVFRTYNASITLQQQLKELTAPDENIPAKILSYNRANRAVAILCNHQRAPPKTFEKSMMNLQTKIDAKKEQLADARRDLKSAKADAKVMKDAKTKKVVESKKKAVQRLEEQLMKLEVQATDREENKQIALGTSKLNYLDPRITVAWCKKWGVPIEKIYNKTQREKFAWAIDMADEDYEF
Kind of data set: Inhibition of DNA topoisomerase 1 assessed as inhibition of unwinding of supercoiled pBR322 DNA at 20 uM by agarose gel electrophoresis.

For data set [5], the system named is Human immunodeficiency virus 1. Kind of data set: Antiviral activity against HIV1 3B infected in human CEM cells assessed as drug level required for protection against virus-induced cytopathogenicity after 4 days. In kind it is functional, organism-based. The following applies: Human immunodeficiency virus 1, 3B, CCRF-CEM, 96 h. In general terms: Damage to the host cells serves as the signal in cytopathic effect assays.

Data set [6] concerns Human immunodeficiency virus 2. Briefly: Antiviral activity against HIV2 ROD infected in human CEM cells assessed as drug level required for protection against virus-induced cytopathogenicity after 4 days. Format: functional, organism-based. To be noted: Human immunodeficiency virus 2, ISOLATE ROD, CCRF-CEM, 96 h.
Data set [7] can be described thus: Selectivity index, ratio of IC50 for human CEM cells to EC50 for HIV1 3B. Format: toxicity, cell-based, CCRF-CEM. To be noted: read-out: Ratio IC50/EC50.
Data set [8] deals with Human alphaherpesvirus 1. Kind of data set: Antiviral activity against HSV1 infected in HEL cells at subtoxic concentration. In kind it is functional, organism-based.
In data set [9] the test system is Human alphaherpesvirus 2. Briefly: Antiviral activity against HSV2 infected in HEL cells at subtoxic concentration. In kind it is functional, organism-based.
Data set [10] concerns Vaccinia virus. Briefly: Antiviral activity against Vaccinia virus infected in HEL cells at subtoxic concentration. Format: functional, organism-based. The following applies: Orthopoxvirus vaccinia.
In data set [11] the test system is Vesicular stomatitis virus. Briefly: Antiviral activity against VSV infected in HEL cells at subtoxic concentration. Format: functional, organism-based.
Data set [12] deals with Vesicular stomatitis virus. Kind of data set: Antiviral activity against VSV infected in human HeLa cells at subtoxic concentration. In kind it is functional, organism-based.
For data set [13], the system named is Coxsackievirus B4. Briefly: Antiviral activity against Coxsackievirus B4 infected in human HeLa cells at subtoxic concentration. In kind it is functional, organism-based.
For data set [14], the system named is Respiratory syncytial virus. Kind of data set: Antiviral activity against Respiratory syncytial virus infected in human HeLa cells at subtoxic concentration. In kind it is functional, organism-based.
The subject of data set [15] is Human respirovirus 3. Briefly: Antiviral activity against Parainfluenza virus 3 infected in african green monkey Vero cells at subtoxic concentration. In kind it is functional, organism-based.
Data set [16] deals with Mammalian orthoreovirus 1. Kind of data set: Antiviral activity against Reovirus 1 infected in african green monkey Vero cells at subtoxic concentration. In kind it is functional, organism-based.
Data set [17] deals with Sindbis virus. Briefly: Antiviral activity against Sindbis virus infected in african green monkey Vero cells at subtoxic concentration. Format: functional, organism-based.
The subject of data set [18] is Coxsackievirus B4. Briefly: Antiviral activity against Coxsackievirus B4 infected in african green monkey Vero cells at subtoxic concentration. Format: functional, organism-based.
In data set [19] the test system is Punta Toro virus. Kind of data set: Antiviral activity against Punta Toro virus infected in african green monkey Vero cells at subtoxic concentration. In kind it is functional, organism-based.
Data set [20] relates to Influenza A virus. Briefly: Antiviral activity against influenza A virus H1N1:H3N2 infected in […] cells at subtoxic concentration. In kind it is functional, organism-based.
For data set [21], the system named is Influenza B virus. Briefly: Antiviral activity against influenza B virus infected in […] cells at subtoxic concentration. Format: functional, organism-based.
Data set [22] concerns K562. Briefly: Antiproliferative against human K562 cells after 72 hrs. Format: functional, cell-based. The following applies: K562, 72 h.
For data set [23], the system named is HCT-116. Briefly: Antiproliferative against human HCT116 cells after 72 hrs. In kind it is functional, cell-based. To be noted: HCT-116, 72 h.
Data set [24] concerns the target T1, DNA topoisomerase 1 (Homo sapiens). Kind of data set: Inhibition of DNA topoisomerase 1 assessed as partial inhibition of unwinding of supercoiled pBR322 DNA at 20 uM by agarose gel electrophoresis.
Data set [25] has the same target. Kind of data set: Inhibition of DNA topoisomerase 1 assessed as inhibition of unwinding of supercoiled pBR322 DNA at 10 to 20 uM by agarose gel electrophoresis.
Data set [26] shares this target. Kind of data set: Inhibition of DNA topoisomerase 1 assessed as partial inhibition of unwinding of supercoiled pBR322 DNA at 5 uM by agarose gel electrophoresis.

Molecules are shown by their SMILES. Activity calls are given as the source filed them. The rule behind the calls is not given here.

The values that follow come from ChEMBL document CHEMBL1154091, “Reaction of the antitumor antibiotic olivomycin I with aryl diazonium salts. Synthesis, cytotoxic and antiretroviral potency of 5-aryldiazenyl-6-O-deglycosyl derivatives of olivomycin I” (Bioorg Med Chem, 2009).

`COc1ccc(/N=N/c2c(O)cc(O)c3c(O)c4c(cc23)C[C@@H]([C@H](OC)C(=O)[C@@H](O)[C@@H](C)O)[C@H](O[C@H]2C[C@@H](O[C@H]3C[C@@H](O[C@H]5C[C@](C)(O)[C@@H](OC(=O)C(C)C)[C@H](C)O5)[C@H](O)[C@@H](C)O3)[C@H](O)[C@@H](C)O2)C4=O)cc1`: the figures for the IC50 in data set [1], in [2] and in data set [3] were 20000 nM, 7300 nM and 26000 nM, respectively. Moreover, the outcome in [4], in data set [8], in data set [9], in [10], in [11] and in [12] was inactive. The result in [13], in data set [14], in [15], in data set [16], in [17] and in data set [18] was inactive. Moreover, the outcome in data set [19], in data set [20] and in data set [21] was inactive. Further, the EC50 in [5] was 500 nM; in [6] it was not below 4000 nM. For the same compound, in data set [7], the selectivity ratio turned out to be 52.
As for `CO[C@H](C(=O)[C@@H](O)[C@@H](C)O)[C@@H]1Cc2cc3c(/N=N/c4ccccc4)c(O)cc(O)c3c(O)c2C(=O)[C@H]1O[C@H]1C[C@@H](O[C@H]2C[C@@H](O[C@H]3C[C@](C)(O)[C@@H](OC(=O)C(C)C)[C@H](C)O3)[C@H](O)[C@@H](C)O2)[C@H](O)[C@@H](C)O1`, the IC50 in [1] stood at 6100 nM; in data set [2] it was 1600 nM; in data set [3], 1800 nM. Besides, the outcome in data set [4], in [8], in data set [9], in data set [10], in [11] and in data set [12] was inactive. The result in [13], in [14], in [15], in data set [16], in data set [17] and in data set [18] was inactive. Moreover, the outcome in data set [19], in data set [20] and in data set [21] was inactive. The figures for the EC50 in [5] and in data set [6] were 60 nM and not below 40 nM, respectively. The selectivity ratio in data set [7] was found to be 30.
Turning to `CO[C@H](C(=O)[C@@H](O)[C@@H](C)O)[C@@H]1Cc2cc3c(/N=N/c4ccc(C)cc4)c(O)cc(O)c3c(O)c2C(=O)[C@H]1O[C@H]1C[C@@H](O[C@H]2C[C@@H](O[C@H]3C[C@](C)(O)[C@@H](OC(=O)C(C)C)[C@H](C)O3)[C@H](O)[C@@H](C)O2)[C@H](O)[C@@H](C)O1`, the 50% inhibitory concentration (IC50) in data set [22] was 2000 nM; in data set [23], 2400 nM. The result in [24] was Active.
As for `CO[C@H](C(=O)[C@@H](O)[C@@H](C)O)[C@@H]1Cc2cc3c(/N=N/c4ccc(S(N)(=O)=O)cc4)c(O)cc(O)c3c(O)c2C(=O)[C@H]1O[C@H]1C[C@@H](O[C@H]2C[C@@H](O[C@H]3C[C@](C)(O)[C@@H](OC(=O)C(C)C)[C@H](C)O3)[C@H](O)[C@@H](C)O2)[C@H](O)[C@@H](C)O1`, the IC50 in [1], in data set [2] and in [3] was more than 100000 nM in each case. Moreover, the outcome in data set [4], in [8], in data set [9], in [10], in [11] and in data set [12] was inactive. The outcome in [13], in data set [14], in data set [15], in data set [16], in data set [17] and in [18] was inactive. Moreover, the result in data set [19], in data set [20] and in data set [21] was inactive. The EC50 in [5] is 50000 nM; in data set [6], more than 100000 nM. Also, in data set [7], the selectivity ratio was more than 2.
Consider `CO[C@@H]1[C@H](O)C[C@@H](O[C@@H]2C[C@H](Oc3cc(O)c4c(O)c5c(cc4c3)C[C@@H]([C@H](OC)C(=O)[C@@H](O)[C@@H](C)O)[C@H](O[C@H]3C[C@@H](O[C@H]4C[C@@H](O[C@H]6C[C@](C)(O)[C@@H](OC(=O)C(C)C)[C@H](C)O6)[C@H](O)[C@@H](C)O4)[C@H](O)[C@@H](C)O3)C5=O)O[C@H](C)[C@@H]2OC(C)=O)O[C@@H]1C` [OLIVOMYCIN I], for which the IC50 in data set [1] was determined as 34 nM; in [2], 4 nM; in [3], 2.5 nM; in data set [22], 44 nM; in [23] it was 55 nM. In addition, the result in data set [25] and in [26] was Active. Also, the values for the EC50 in [5] and in [6] were 5 nM and 4 nM, respectively.
Take `CO[C@H](C(=O)[C@@H](O)[C@@H](C)O)[C@@H]1Cc2cc3c(/N=N/c4ccc(Cl)c(Cl)c4)c(O)cc(O)c3c(O)c2C(=O)[C@H]1O[C@H]1C[C@@H](O[C@H]2C[C@@H](O[C@H]3C[C@](C)(O)[C@@H](OC(=O)C(C)C)[C@H](C)O3)[C@H](O)[C@@H](C)O2)[C@H](O)[C@@H](C)O1`: the values for the IC50 in data set [1], in data set [2] and in [3] were 5600 nM, 1900 nM and 2600 nM, respectively. Further, the result in data set [4] was Active. Besides, the values for the EC50 in [5] and in data set [6] were 500 nM and not below 800 nM, respectively. Further, the selectivity ratio in data set [7] amounted to 5.2. The result in [8], in data set [9], in data set [10], in [11], in [12] and in data set [13] was inactive. Further, the result in [14], in data set [15], in data set [16], in data set [17], in data set [18] and in data set [19] was inactive. Further, the outcome in [20] and in [21] was inactive.
On to `CO[C@@H]1[C@H](O)C[C@@H](O[C@@H]2C[C@H](Oc3cc(OC(C)=O)c4c(O)c5c(cc4c3)C[C@@H]([C@H](OC)C(=O)[C@@H](O)[C@@H](C)O)[C@H](O[C@H]3C[C@@H](O[C@H]4C[C@@H](O[C@H]6C[C@](C)(O)[C@@H](OC(=O)C(C)C)[C@H](C)O6)[C@H](O)[C@@H](C)O4)[C@H](O)[C@@H](C)O3)C5=O)O[C@H](C)[C@@H]2OC(C)=O)O[C@@H]1C`, for which the values for the half-maximal inhibitory concentration (IC50) in data set [1], in data set [2] and in data set [3] were 8 nM, 22 nM and 2.4 nM, respectively.

A word on the IC50: it is the concentration that gives 50% inhibition. The EC50 is the concentration giving half of the maximal effect.
